# Test results reported in the supplement of paper PMC5722580.
# Tests used:
# [1] = system: KAI3; experiment: drug sensitivity score (viability inhibition); higher = more sensitive; conditions: 72 h; IL2 2.5 ng/ml
# Experimental: (§1)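 NK-cell leukemia/lymphoma cell lines (3,000 cells/well) were cultured with IL2 2.5 ng/ml in 384-well drug plates (5-8 concentrations over a 10,000-fold range) for 72 h at 37 C; viability was read with CellTiter-Glo. DSS is a normalised area under the dose-response curve; the experiment was repeated twice.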
# [2] = system: KHYG-1; experiment: as above; conditions: 72 h; IL2 2.5 ng/ml
# Experimental: as §1
# [3] = system: NK-92; experiment: as above; conditions: 72 h; IL2 2.5 ng/ml
# Experimental: as §1
# [4] = system: NK-YS; experiment: as above; conditions: 72 h; IL2 2.5 ng/ml
# Experimental: as §1
# [5] = system: NKL; experiment: as above; conditions: 72 h; IL2 2.5 ng/ml
# Experimental: as §1
# [6] = system: SNK6; experiment: as above; conditions: 72 h; IL2 2.5 ng/ml
# Experimental: as §1
# [7] = system: YT; experiment: as above; conditions: 72 h; IL2 2.5 ng/ml
# Experimental: as §1
# [8] = system: HEK293-SIE STAT3 WT; experiment: drug sensitivity score (inhibition of STAT3 luciferase reporter); higher = stronger inhibition; conditions: 6 h; STAT3: WT; IL6 100 ng/ml
# Experimental: (§2)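 HEK293 cells with a STAT3-inducible (SIE) luciferase reporter, stably expressing WT STAT3 (IL6 100 ng/ml) or Y640F STAT3 (no IL6), were incubated 6 h with drugs in 384-well plates (5-8 concentrations over a 10,000-fold range); luciferase was read with ONE-Glo. DSS is a normalised area under the dose-response curve; values are the mean of two experiments.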
# [9] = system: HEK293-SIE STAT3 Y640F; experiment: as above; conditions: 6 h; IL6 0 ng/ml
# Experimental: as §2
Structure (SMILES),drug sensitivity score [1] [DSS],drug sensitivity score [2] [DSS],drug sensitivity score [3] [DSS],drug sensitivity score [4] [DSS],drug sensitivity score [5] [DSS],drug sensitivity score [6] [DSS],drug sensitivity score [7] [DSS],drug sensitivity score [8] [DSS],drug sensitivity score [9] [DSS]
COc1ncc(-c2ccc3nccc(-c4ccnnc4)c3c2)cc1NS(=O)(=O)c1ccc(F)cc1F [Omipalisib],6.45,9.27,11.6,12.1,11.3,5.15,10.9,5.9,8.15
FC(F)c1nc2ccccc2n1-c1nc(N2CCOCC2)nc(N2CCOCC2)n1 [ZSTK474],5.42,2.23,12.8,9.54,9.94,7.75,7.9,2.77,4.7
COc1cc(Nc2c(C#N)cnc3cc(OCCCN4CCN(C)CC4)c(OC)cc23)c(Cl)cc1Cl [Bosutinib],6.47,7.49,7.49,5.25,5.37,5.08,5.38,0.775,8.4
Cc1c2oc3c(C)ccc(C(=O)N[C@@H]4C(=O)N[C@H](C(C)C)C(=O)N5CCC[C@H]5C(=O)N(C)CC(=O)N(C)[C@@H](C(C)C)C(=O)O[C@@H]4C)c3nc-2c(C(=O)N[C@@H]2C(=O)N[C@H](C(C)C)C(=O)N3CCC[C@H]3C(=O)N(C)CC(=O)N(C)[C@@H](C(C)C)C(=O)O[C@@H]2C)c(N)c1=O [Dactinomycin],23.8,29.3,16.5,38.2,36.5,32.2,35,18.9,18.4
CC(=O)OC[C@H]1O[C@@H]([S-])[C@H](OC(C)=O)[C@@H](OC(C)=O)[C@@H]1OC(C)=O.CCP(CC)CC.[Au+] [Auranofin],2.72,5.84,4.86,8.08,8.44,8.28,8.63,5.9,2.05
CNC(=O)c1cc(Oc2ccc(NC(=O)Nc3ccc(Cl)c(C(F)(F)F)c3)cc2)ccn1 [Sorafenib],0,0.013,0.365,0.00415,0,4.36,0,2.1,1.6
CO[C@H]1C[C@@H]2CC[C@@H](C)[C@@](O)(O2)C(=O)C(=O)N2CCCC[C@H]2C(=O)O[C@H]([C@H](C)C[C@@H]2CC[C@@H](OCCO)[C@H](OC)C2)CC(=O)[C@H](C)/C=C(\C)[C@@H](O)[C@@H](OC)C(=O)[C@H](C)C[C@H](C)/C=C/C=C/C=C/1C [Everolimus],6.6,5.9,1.19,16.8,17.4,12.2,11.8,3.15,8.9
Cc1cc(Nc2nc(N[C@@H](C)c3ncc(F)cn3)ncc2Cl)[nH]n1 [AZD1480],17.4,18.3,7.65,10.7,13.7,12.1,6.65,17.9,8.77
C[C@@H]1CCN(C(=O)CC#N)C[C@@H]1N(C)c1ncnc2[nH]ccc12 [Tofacitinib],17.4,23.4,13.2,12.3,19.8,15.5,8.43,26,9.05
C[C@@H]1C[C@H]2[C@@H]3CCC4=CC(=O)C=C[C@]4(C)[C@@]3(F)[C@@H](O)C[C@]2(C)[C@@]1(O)C(=O)CO [Dexamethasone],1.14,15.6,0,3.83,24.6,0,9.73,1.8,2.6
CN(C)C[C@@H]1CCn2cc(c3ccccc32)C2=C(C(=O)NC2=O)c2cn(c3ccccc23)CCO1 [Ruboxistaurin],4.46,9.45,4.64,8.41,7.79,4.54,4.62,3.95,0.3
O=[N+]([O-])c1ccc2c(c1)S(=O)(=O)C=C2 [Stattic],14.3,13.3,13.2,12.4,10.7,14.1,14.6,8.32,7.37
CC1(C)CCC(c2ccc(Cl)cc2)=C(CN2CCN(c3ccc(C(=O)NS(=O)(=O)c4ccc(N[C@H](CCN5CCOCC5)CSc5ccccc5)c(S(=O)(=O)C(F)(F)F)c4)cc3)CC2)C1 [Navitoclax],39.8,25.9,14.2,27.6,22.4,39.1,23.3,0,0.5
COc1ccccc1S(=O)(=O)Nc1ccc2c(c1)CN(C)C(=O)N2 [PFI-1],1.7,7.25,0.03,6.22,4.02,4.16,3.24,6.65,0
C[C@]12C=CC(=O)C=C1CC[C@@H]1[C@@H]2[C@@H](O)C[C@@]2(C)[C@H]1CC[C@]2(O)C(=O)CO [Prednisolone],0,6.65,0,1.37,11,2.12,5.05,0,0
C=CCn1c(=O)c2cnc(Nc3ccc(N4CCN(C)CC4)cc3)nc2n1-c1cccc(C(C)(C)O)n1 [MK1775],19.9,24.5,23,20.5,22.5,19.7,19.8,9.88,8.87
COc1ccc(-c2cc3c(C)nc(N)nc3n([C@H]3CC[C@H](OCCO)CC3)c2=O)cn1,9.49,13.9,19.2,15,15.4,5.96,16.1,14.9,9.1
C[C@]12O[C@H](C[C@]1(O)CO)n1c3ccccc3c3c4c(c5c6ccccc6n2c5c31)CNC4=O [Lestaurtinib],18.3,22,14.3,12.4,14.6,13,13.5,20.7,10.8
CS(=O)(=O)N1CCN(Cc2cc3nc(-c4cccc5[nH]ncc45)nc(N4CCOCC4)c3s2)CC1 [Pictilisib],2.33,3.56,7.68,6.48,6.67,1.94,5.04,4.5,5
COc1cc2c(cc1-c1c(C)noc1C)ncc1[nH]c(=O)n([C@H](C)c3ccccn3)c12 [I-BET151],4.86,13.3,1.34,12.2,8.89,11.6,7.05,11.5,4.4
